The text below walks through data of PMC9432691, “Characterisation of a soil MINPP phytase with remarkable long-term stability and activity from Acinetobacter sp” (PLoS ONE, 2022).

The test concerns the target T1, AtITPK1 (inositol tris/tetrakisphosphate kinase 1) (Arabidopsis thaliana, UniProt Q9SBA5).
T1 construct: gene ITPK1
T1 sequence (Q9SBA5 2-319): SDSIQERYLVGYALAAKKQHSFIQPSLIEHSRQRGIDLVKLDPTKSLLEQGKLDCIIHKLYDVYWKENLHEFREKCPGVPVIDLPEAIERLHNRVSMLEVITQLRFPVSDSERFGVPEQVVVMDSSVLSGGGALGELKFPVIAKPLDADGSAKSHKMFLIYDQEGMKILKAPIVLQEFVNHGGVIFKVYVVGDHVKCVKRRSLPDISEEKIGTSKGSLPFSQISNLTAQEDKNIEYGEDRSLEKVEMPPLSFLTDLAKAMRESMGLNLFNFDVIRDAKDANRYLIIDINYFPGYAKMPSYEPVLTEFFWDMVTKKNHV
Description: pyrophosphorylation assay with […] substrate, HPLC; […] conversion. It counts as biochemical.

Turning to `O=P(O)(O)O[C@H]1[C@H](OP(=O)(O)O)[C@@H](OP(=O)(O)O)[C@H](OP(=O)(O)O)[C@@H](OP(=O)(O)O)[C@H]1OP(=O)(O)O` [InsP6, myo-inositol 1,2,3,4,5,6-hexakisphosphate], the “% conversion” value was determined as 90 % conversion.
